Values quoted from earlier work as cited in publication PMC3065533 (Journal of nuclear medicine : official publication, Society …, 2011).

Molecular target: melanocortin-1 (MC1) receptor (Mus musculus, UniProt Q01727)
Conditions: stated in methods without reference

Chain of melanocortin-1 (MC1) receptor (Q01727 whole entry): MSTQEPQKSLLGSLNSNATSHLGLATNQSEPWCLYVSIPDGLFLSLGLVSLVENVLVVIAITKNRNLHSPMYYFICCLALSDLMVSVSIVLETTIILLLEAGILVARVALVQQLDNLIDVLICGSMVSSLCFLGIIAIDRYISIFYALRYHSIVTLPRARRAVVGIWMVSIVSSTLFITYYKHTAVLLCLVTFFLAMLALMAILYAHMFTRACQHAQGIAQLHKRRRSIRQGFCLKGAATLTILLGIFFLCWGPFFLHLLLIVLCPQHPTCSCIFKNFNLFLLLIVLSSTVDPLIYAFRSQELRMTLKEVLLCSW

For NDP-MSH, the “MC1 receptor binding affinity (in words)” value is listed as “picomolar”.
